{"source": "patent US10759813B2", "about": "“Neprilysin inhibitors” (THERAVANCE BIOPHARMA R&D IP, LLC, priority 2010, dated 2020)"}
{"target": "human neprilysin (EC 3.4.24.11; NEP) (Homo sapiens (Human), UniProt P08473)", "sequence (P08473 52-750)": "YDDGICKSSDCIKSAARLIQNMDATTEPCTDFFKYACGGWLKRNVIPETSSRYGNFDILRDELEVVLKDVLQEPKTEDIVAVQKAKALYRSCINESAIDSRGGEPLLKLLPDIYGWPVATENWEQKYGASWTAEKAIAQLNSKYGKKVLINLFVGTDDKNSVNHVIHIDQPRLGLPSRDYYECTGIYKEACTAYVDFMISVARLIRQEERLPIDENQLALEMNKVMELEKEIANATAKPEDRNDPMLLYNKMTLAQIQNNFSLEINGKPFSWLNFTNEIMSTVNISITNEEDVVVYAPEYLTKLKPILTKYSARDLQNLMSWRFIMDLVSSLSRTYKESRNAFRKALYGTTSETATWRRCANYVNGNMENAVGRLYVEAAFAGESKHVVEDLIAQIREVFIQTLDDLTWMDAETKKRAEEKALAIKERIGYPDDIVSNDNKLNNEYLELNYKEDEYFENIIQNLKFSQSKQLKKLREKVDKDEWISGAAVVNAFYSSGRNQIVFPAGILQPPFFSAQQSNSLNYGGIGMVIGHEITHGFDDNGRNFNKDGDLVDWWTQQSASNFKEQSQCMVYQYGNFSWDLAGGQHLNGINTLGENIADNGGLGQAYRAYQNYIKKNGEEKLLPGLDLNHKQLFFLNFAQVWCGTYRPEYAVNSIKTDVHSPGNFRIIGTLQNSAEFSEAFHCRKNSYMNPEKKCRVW", "experiment": "In vitro enzyme inhibition assay at human NEP (fluorogenic peptide substrate)", "type": "biochemical", "settings": "pKi values at human NEP, recombinant human NEP", "how_it_was_run": "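Recombinant human NEP preincubated 30 min at 37 °C with compound (10 μM down to pM), then 10 μM Mca-D-Arg-Arg-Leu-Dap-(Dnp)-OH in 50 mM HEPES pH 7.5, 100 mM NaCl, 0.01% Tween-20, 10 μM ZnSO4. Stopped after 20 min with acetic acid; fluorescence Ex320/Em405; Ki by nonlinear fit, reported as pKi.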", "units": {"Ki": "nM"}}
{"molecule": "O=C(N[C@H](Cc1ccc(-c2cccc(Cl)c2)cc1)C[C@@H](O)C(=O)O)c1nnc(C(F)(F)F)[nH]1", "note": "[Example 18-45, (2R,4R)-5-(3′-Chlorobiphenyl-4-yl)-2-hydroxy-4-[(5-trifluoromethyl-4H-[1,2,4]triazole-3-carbonyl)-amino]-pentanoic acid]", "pKi": "≥9.0"}
{"molecule": "O=C(N[C@H](Cc1ccc(-c2cccc(Cl)c2)cc1)C[C@@H](O)C(=O)O)c1n[nH]c(Cl)n1", "note": "[Example 18-46, (2R,4R)-5-(3′-Chlorobiphenyl-4-yl)-4-[(5-chloro-1H-[1,2,4]triazole-3-carbonyl)-amino]-2-hydroxy-pentanoic acid]", "pKi": "≥9.0"}
{"molecule": "O=C(N[C@H](Cc1ccc(-c2cccc(Cl)c2)cc1)C[C@@H](O)C(=O)O)c1nn(-c2ccccc2)c(=O)[nH]1", "note": "[Example 18-47, (2R,4R)-5-(3′-Chlorobiphenyl-4-yl)-2-hydroxy-4-[(5-oxo-1-phenyl-4,5-dihydro-1H-[1,2,4]triazole-3-carbonyl)-amino]-pentanoic acid]", "pKi": "≥9.0"}
{"molecule": "O=C(N[C@H](Cc1ccc(-c2cccc(Cl)c2)cc1)C[C@@H](O)C(=O)O)c1ccc(=O)n(Cc2ccccc2)n1", "note": "[Example 18-48, (2R,4R)-4-[(1-Benzyl-6-oxo-1,6-dihydro-pyridazine-3-carbonyl)-amino]-5-(3′-chlorobiphenyl-4-yl)-2-hydroxy-pentanoic acid]", "Ki": "1.26 to 10"}
{"molecule": "O=C(N[C@H](Cc1ccc(-c2cccc(Cl)c2)cc1)C[C@@H](O)C(=O)O)c1ccc(=O)n(-c2ccccc2)n1", "note": "[Example 18-49, (2R,4R)-5-(3′-Chlorobiphenyl-4-yl)-2-hydroxy-4-[(6-oxo-1-phenyl-1,6-dihydro-pyridazine-3-carbonyl)-amino]-pentanoic acid]", "Ki": "1.26 to 10"}
{"molecule": "O=C(N[C@H](Cc1ccc(-c2cccc(Cl)c2)cc1)C[C@@H](O)C(=O)O)c1ccc(O)nn1", "note": "[Example 18-50, (2R,4R)-5-(3′-Chlorobiphenyl-4-yl)-2-hydroxy-4-[(6-hydroxy-pyridazine-3-carbonyl)-amino]-pentanoic acid]", "pKi": "≥9.0"}
{"molecule": "O=C(N[C@H](Cc1ccc(-c2cc(Cl)ccc2Cl)cc1)C[C@@H](O)C(=O)O)c1cn(O)nn1", "note": "[Example 19-1, (2R,4R)-5-(2′,5′-Dichlorobiphenyl-4-yl)-2-hydroxy-4-[(1-hydroxy-1H-[1,2,3]triazole-4-carbonyl)-amino]-pentanoic acid]", "pKi": "≥9.0"}
{"molecule": "O=C(N[C@H](Cc1ccc(-c2cc(Cl)ccc2F)cc1)C[C@@H](O)C(=O)O)c1cn(O)nn1", "note": "[Example 19-6, (2R,4R)-5-(5′-Chloro-2′-fluorobiphenyl-4-yl)-2-hydroxy-4[(1-hydroxy-1H-[1,2,3]triazole-4-carbonyl)-amino]-pentanoic acid]", "pKi": "≥9.0"}
{"molecule": "Cc1ccc(Cl)cc1-c1ccc(C[C@H](C[C@@H](O)C(=O)O)NC(=O)c2cn(O)nn2)cc1", "note": "[Example 19-12, (2R,4R)-5-(5′-Chloro-2′-methyl-biphenyl-4-yl)-2-hydroxy-4-[(1-hydroxy-1H-[1,2,3]triazole-4-carbonyl)-amino]-pentanoic acid]", "pKi": "≥9.0"}
{"molecule": "COc1ccccc1-c1ccc(C[C@H](C[C@@H](O)C(=O)O)NC(=O)c2cn(O)nn2)cc1", "note": "[Example 19-17, (2R,4R)-2-Hydroxy-4-[(1-hydroxy-1H-[1,2,3]triazole-4-carbonyl)-amino]-5-(2′-methoxy-biphenyl-4-yl)-pentanoic acid]", "pKi": "≥9.0"}
{"molecule": "CC(=O)OCOn1nncc1C(=O)N[C@H](Cc1ccc(-c2cc(Cl)ccc2F)cc1)C[C@@H](O)C(=O)O", "note": "[Example 19-18, (2R,4R)-4-[(3-Acetoxymethoxy-3H-[1,2,3]triazole-4-carbonyl)-amino]-5-(5′-chloro-2′-fluoro-biphenyl-4-yl)-2-hydroxy-pentanoic acid]", "pKi": "≥9.0"}
{"molecule": "COc1cc(C(=O)N[C@H](Cc2ccc(-c3cc(Cl)ccc3F)cc2)C[C@@H](O)C(=O)O)on1", "note": "[Example 19-19, (2R,4R)-5-(5′-Chloro-2′-fluoro-biphenyl-4-yl)-2-hydroxy-4-[(3-methoxy-isoxazole-5-carbonyl)-amino]-pentanoic acid]", "pKi": "≥9.0"}
{"molecule": "O=C(N[C@H](Cc1ccc(-c2cc(Cl)ccc2F)cc1)C[C@@H](O)C(=O)O)c1nn(-c2ccccc2)c(=O)[nH]1", "note": "[Example 19-20, (2R,4R)-5-(5′-Chloro-2′-fluoro-biphenyl-4-yl)-2-hydroxy-4-[(5-oxo-1-phenyl-4,5-dihydro-1H-[1,2,4]triazole-3-carbonyl)-amino]-pentanoic acid]", "pKi": "≥9.0"}
{"molecule": "CC(=O)OCOn1nnc2ccc(C(=O)N[C@H](Cc3ccc(-c4cc(Cl)ccc4Cl)cc3)C[C@@H](O)C(=O)O)cc21", "note": "[Example 19-21, (2R,4R)-4-[(3-Acetoxymethoxy-3H-benzotriazole-5-carbonyl)-amino]-5-(2′,5-dichloro-biphenyl-4-yl)-2-hydroxy-pentanoic acid]", "Ki": "≤ 1"}
{"molecule": "O=C(N[C@H](Cc1ccc(-c2ccccc2)cc1Cl)C[C@@H](O)C(=O)O)c1c[nH]nn1", "note": "[Example 20-1, (2R,4R)-5-(3-Chlorobiphenyl-4-yl)-2-hydroxy-4-[(1H-[1,2,3]triazole-4-carbonyl)-amino]-pentanoic acid]", "pKi": "≥9.0"}
{"molecule": "O=C(N[C@H](Cc1ccc(-c2ccccc2)cc1Cl)C[C@@H](O)C(=O)O)c1cnn[nH]1", "note": "[Example 20-2, (2R,4R)-5-(3-Chlorobiphenyl-4-yl)-2-hydroxy-4-[(3H-[1,2,3]triazole-4-carbonyl)-amino]-pentanoic acid]", "pKi": "≥9.0"}
{"molecule": "O=C(N[C@H](Cc1ccc(-c2ccccc2)cc1Cl)C[C@@H](O)C(=O)O)c1nn(-c2cccc(Cl)c2)c(=O)[nH]1", "note": "[Example 20-3, (2R,4R)-5-(3-Chloro-biphenyl-4-yl)-4-{[1-(3-chloro-phenyl)-5-oxo-4,5-dihydro-1H-[1,2,4]triazole-3-carbonyl]-amino}-2-hydroxy-pentanoic acid]", "pKi": "≥9.0"}
{"molecule": "O=C(N[C@H](Cc1ccc(-c2ccccc2)cc1Cl)C[C@@H](O)C(=O)O)c1nn(-c2ccccc2)c(=O)[nH]1", "note": "[Example 20-4, (2R,4R)-5-(3-Chloro-biphenyl-4-yl)-2-hydroxy-4-[(5-oxo-1-phenyl-4,5-dihydro-1H-[1,2,4]triazole-3-carbonyl)-amino]-pentanoic acid]", "pKi": "≥9.0"}
{"molecule": "CN(C)C(=O)c1cc(C(=O)N[C@H](Cc2ccc(-c3ccccc3)cc2Cl)C[C@@H](O)C(=O)O)[nH]n1", "note": "[Example 20-5, (2R,4R)-5-(3-Chloro-biphenyl-4-yl)-4-[(5-dimethylcarbamoyl-2H-pyrazole-3-carbonyl)-amino]-2-hydroxy-pentanoic acid]", "pKi": "≥9.0"}
{"molecule": "COCCN(C)C(=O)c1cc(C(=O)N[C@H](Cc2ccc(-c3ccccc3)cc2Cl)C[C@@H](O)C(=O)O)[nH]n1", "note": "[Example 20-6, (2R,4R)-5-(3-Chloro-biphenyl-4-yl)-2-hydroxy-4-({5-[(2-methoxy-ethyl)-methyl-carbamoyl]-2H-pyrazole-3-carbonyl}-amino)-pentanoic acid]", "pKi": "≥9.0"}
{"molecule": "CC(=O)c1cc(C(=O)N[C@H](Cc2ccc(-c3ccccc3)cc2Cl)C[C@@H](O)C(=O)O)[nH]n1", "note": "[Example 20-7, (2R,4R)-4-[(5-Acetyl-2H-pyrazole-3-carbonyl)-amino]-5-(3-chloro-biphenyl-4-yl)-2-hydroxy-pentanoic acid]", "pKi": "≥9.0"}
{"molecule": "O=C(N[C@H](Cc1ccc(-c2ccccc2)cc1Cl)C[C@@H](O)C(=O)O)c1cc(-c2cccnc2)n[nH]1", "note": "[Example 20-8, (2R,4R)-5-(3-Chloro-biphenyl-4-yl)-2-hydroxy-4-[(5-pyridin-3-yl-2H-pyrazole-3-carbonyl)-amino]-pentanoic acid]", "pKi": "≥9.0"}
{"molecule": "O=C(N[C@H](Cc1ccc(-c2ccccc2)cc1Cl)C[C@@H](O)C(=O)O)c1cc(-c2ccccn2)n[nH]1", "note": "[Example 20-9, (2R,4R)-5-(3-Chloro-biphenyl-4-yl)-2-hydroxy-4-[(5-pyridin-2-yl-2H-pyrazole-3-carbonyl)-amino]-pentanoic acid]", "Ki": "1.26 to 10"}
{"molecule": "O=C(N[C@H](Cc1ccc(-c2cccc(Cl)c2)cc1Cl)C[C@@H](O)C(=O)O)c1cnn[nH]1", "note": "[Example 21-1, (2R,4R)-5-(3,3′-Dichlorobiphenyl-4-yl)-2-hydroxy-4-[(3H-[1,2,3]triazole-4-carbonyl)-amino]-pentanoic acid]", "pKi": "≥9.0"}
{"molecule": "COCc1cc(C(=O)N[C@H](Cc2ccc(-c3cccc(Cl)c3)cc2Cl)C[C@@H](O)C(=O)O)[nH]n1", "note": "[Example 21-2, (2R,4R)-5-(3,3′-Dichloro-biphenyl-4-yl)-2-hydroxy-4-[(5-methoxymethyl-2H-pyrazole-3-carbonyl)-amino]-pentanoic acid]", "pKi": "≥9.0"}
{"molecule": "O=C(N[C@H](Cc1ccc(-c2cc(Cl)ccc2F)cc1)C[C@@H](O)C(=O)O)c1ccc2nnn(O)c2c1", "note": "[Example 22, (2R,4R)-5-(5′-Chloro-2′-fluorobiphenyl-4-yl)-2-hydroxy-4-[(3-hydroxy-3H-benzotriazole-5-carbonyl)-amino]-pentanoic Acid]", "pKi": "≥9.0"}
{"molecule": "Cc1cccc(-c2ccc(C[C@@H](C[C@H](O)C(=O)O)NC(=O)c3ccc4nnn(O)c4c3)cc2)c1", "note": "[Example 23-1, (2S,4S)-2-Hydroxy-4-[(3-hydroxy-3H-benzotriazole-5-carbonyl)-amino]-5-(3′-methyl-biphenyl-4-yl)-pentanoic acid]", "pKi": "≥9.0"}
{"molecule": "COc1ccccc1-c1ccc(C[C@@H](C[C@H](O)C(=O)O)NC(=O)c2ccc3nnn(O)c3c2)cc1", "note": "[Example 23-3, (2S,4S)-2-Hydroxy-4-[(3-hydroxy-3H-benzotriazole-5-carbonyl)-amino]-5-(2′-methoxy-biphenyl-4-yl)-pentanoic acid]", "pKi": "≥9.0"}
{"molecule": "O=C(N[C@@H](Cc1ccc(-c2cc(Cl)ccc2Cl)cc1)C[C@H](O)C(=O)O)c1ccc2nnn(O)c2c1", "note": "[Example 23-4, (2S,4S)-5-(2′,5′-Dichlorobiphenyl-4-yl)-2-hydroxy-4-[(3-hydroxy-3H-benzotriazole-5-carbonyl)-amino]-pentanoic acid]", "pKi": "≥9.0"}
